The record followed here is article PMC11251182, “Tubular insulin-induced gene 1 deficiency promotes NAD^+ consumption and exacerbates kidney fibrosis” (EMBO Molecular Medicine, 2024).

This experiment deals with T1, human recombinant Aldh1a1 (hAldh1a1) (Homo sapiens, UniProt P00352).
T1 construct: recombinant human Aldh1a1 protein (Novoprotein, CF44)
T1 sequence (P00352 2-501): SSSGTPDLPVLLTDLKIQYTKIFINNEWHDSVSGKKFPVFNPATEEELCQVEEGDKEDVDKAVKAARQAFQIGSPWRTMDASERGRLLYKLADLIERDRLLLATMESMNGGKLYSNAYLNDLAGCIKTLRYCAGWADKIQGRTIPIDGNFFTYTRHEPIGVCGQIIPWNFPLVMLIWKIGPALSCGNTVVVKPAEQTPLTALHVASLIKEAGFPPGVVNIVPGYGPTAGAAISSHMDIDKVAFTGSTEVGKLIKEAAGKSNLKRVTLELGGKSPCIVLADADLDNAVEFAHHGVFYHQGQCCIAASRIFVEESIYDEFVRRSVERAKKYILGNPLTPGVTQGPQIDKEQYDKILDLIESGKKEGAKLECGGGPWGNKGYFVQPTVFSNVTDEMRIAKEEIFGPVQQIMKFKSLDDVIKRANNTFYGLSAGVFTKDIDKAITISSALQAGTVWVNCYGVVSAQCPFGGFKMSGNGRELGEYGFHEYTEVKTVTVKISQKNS
Briefly: SPR (Biacore T200, CM5 chip, amine coupling); also inhibited the recombinant enzyme's activity at […]. The class given is binding. A general note: SPR reads the build-up and loss of mass on a sensor chip optically.

Structures are written as SMILES.

For orientation: Kd means the free concentration of one partner at which half of the binding sites on the other are occupied at equilibrium, for simple one-to-one binding. On to `COC(=O)C1=C(C)NC(C)=C(C(=O)OCCN(C)Cc2ccccc2)C1c1cccc([N+](=O)[O-])c1` (stereo not shown) [13-F9, nicardipine], for which the dissociation constant (Kd) turned out to be 1980 nM.
